Test results taken from paper PMC5766630, “Non-estrogenic Xanthohumol Derivatives Mitigate Insulin Resistance and Cognitive Impairment in High-Fat Diet-induced Obese Mice” (Scientific Reports, 2018).

Assays:
human LDL = system: human LDL; set-up: method as in PMID 14565769; conditions: cited from earlier work
[1] = system: skeletal muscle AMPK (pAMPKα/total AMPKα); test: AMPK activation in skeletal muscle by Western blot; assay type: in vivo, mouse; conditions: HFD mice, 30 mg/kg/day, 13 weeks, vs control
Method: Approximately 150 mg of frozen liver and muscle tissues were homogenized in tubes containing RIPA buffer with protease and phosphatase inhibitors plus ceramic beads (1.4 mm Ceramic, Bulk Beads, Fisher Scientific, Pittsburgh, PA, USA) using a Precellys 24 (PEQLAB Biotechnology GmbH, Germany). Liver tissue was homogenized for 1 × 30 sec at 6,500 rpm whereas muscle was homogenized for 3 × 30 sec at 6,500 rpm with 20 sec intervals. The homogenates were centrifuged at 15,700 × g for 10 minutes and aliquots (50 µg of protein) of the supernatant (lysate) were separated by SDS-PAGE using 4–15% MP TGX Gels (Bio-Rad # 4561083) and blotted onto nitrocellulose membranes. Membranes were blocked with 5% nonfat milk for 2 h and incubated with antibodies against pAMPK (Phospho-AMPKα (Thr172) Antibody, cat. no. #2531 Cell Signaling Technology, Danvers, MA, USA), AMPK (AMPKα Antibody, cat. no. #2532 Cell Signaling Technology, Danvers, MA, USA), or β-actin (Santa Cruz Biotechnology) for 1 h or overnight. After a second reaction with secondary antibodies (horseradish peroxidase-conjugated IgG goat antirabbit or goat antimouse antibodies), the protein bands on the nitrocellulose membranes were visualized by enhanced chemiluminescence substrate on a Biorad ChemiDocTM MP Imaging System (BioRad Laboratories Inc, Hercules, CA, USA). Band intensities were quantified by densitometry using Image J software.

[2] = system: C57BL/6J mice fed a high-fat diet; test: In vivo liver toxicity: plasma AST and ALT; set-up: species or system mouse; conditions: male C57BL/6J mice, HFD, 30 mg/kg/day in diet, 13 weeks; mean ± SE, n = 11–12
Description: Nine-week old male C57BL/6J mice, obtained from The Jackson Laboratory (Bar Harbor, ME, USA), were housed individually in plastic cages under a 12–12-hr light-dark cycle. They were assigned randomly to four groups consisting of 12 mice each. One group (control) was fed a HFD (Dyets Inc., Bethlehem, PA, USA) containing 60%, 20% and 20% total calories from fat, carbohydrate and protein, respectively, and the other three groups were fed the HFD containing XN, DXN, or TXN. The test compounds were dissolved in an isotropic mixture of oleic acid:propylene glycol:Tween 80, 0.9:1:1 by weight (OPT) before incorporation into the HFD. The control diet contained an identical amount of OPT. All diets were prepared in pellet form by Dyets, Inc. (Bethlehem, PA, USA). The mouse diets were formulated to deliver a dose of 30 mg test compound per kg body weight per day. Food intake was measured three times per week and body weights were recorded weekly. At the end of 13 weeks of feeding, the mice were euthanized and blood, liver and skeletal muscle were collected for analyses. All animal protocols were approved by Institutional Animal Care and Use Committee (IACUC) at Oregon State University. Animal experiments were carried out in accordance with the relevant guidelines and regulations.
Plasma triglycerides and total cholesterol were analyzed with commercially available kits (Fisher-Scientific, Pittsburgh, PA, USA). Plasma glucose was analyzed by a test kit obtained from Wako Diagnostics (Mountain View, CA, USA). Plasma insulin and leptin were analyzed by ELISA kits purchased from Alpco Diagnostics (Salem, NH, USA) and Crystal Chem (Downers Grove, IL, USA), respectively. Homeostasis Model Assessment of Insulin Resistance (HOMA-IR) was calculated as follows: fasting plasma insulin concentration (mU/L) × fasting plasma glucose level (mmol/L)/22.5[95]. Plasma levels of AST and ALT were measured using commercially-available kits (Bioo Scientific Corp., Austin, TX, USA) as indicators of in vivo liver toxicity.

MCF-7 cells = test: MCF-7 cell proliferation, sulforhodamine B (SRB) assay; assay type: cell-based, human; conditions: 48 h exposure, vs vehicle control; for MCF-7 cell viability/proliferation at low concentrations: 0.001–1 µM
Method: The SRB assay has been used to study the effects of phytochemicals such as XN, DXN and 8-PN on cell proliferation of various cancer cell lines, including MCF-7 cells[91],[92]. SRB is a dye that binds to cellular proteins of adherent cells and the absorbance readings are a measure of the number of viable cells (cell mass) attached to the culture plate after incubation with the test compounds (samples) in comparison with vehicle control cells. The cell mass is then extrapolated as a measurement of cell viability and cell proliferation. Increased proliferation of MCF-7 cells is one of the measures of estrogenicity of phytochemicals. MCF-7 cells were plated at 10,000 cells/well in 96-well plates in DMEM medium containing 10% charcoal-stripped FBS and antibiotics. […] After incubation with the test compounds for 48 h, the cell culture medium was removed from each well of the 96-well plate and the cells were fixed for 1 h with 10% trichloroacetic acid. The cells on the plate were washed five with distilled water, air-dried, and then stained with SRB dye (0.4% w/v in 1% acetic acid). Excess dye was removed by washing the plate five times with 1% acetic acid. The plates were air-dried and the adsorbed dye was solubilized in 10 mM Tris buffer for 5 min on a shaker before reading the optical density (OD) at 565 nm. The percentage cell viability/proliferation was calculated as follows: (ODSample−ODZeroblank)/(ODControl−ODZeroblank)×100. Mean values and the coefficient of variation (CV) from six replicate wells were calculated and a one-way ANOVA was used to compare statistical differences between treated and control cells, with p < 0.05 as the level of significance.

Compound: COc1cc(O)c(CC=C(C)C)c(O)c1C(=O)/C=C/c1ccc(O)cc1 [XN, 3′-[3,3-dimethylallyl]-2′,4′,4-trihydroxy-6′-methoxychalcone]
- Inhibition of SIN-1-induced lipid peroxidation of human LDL (human LDL): effectively inhibits
- Decrease of skeletal muscle AMPK activation (pAMPK/AMPK) [1]: 19%
- Plasma ALT [2]: 68.8 ± 6.8 U/L
- Plasma AST [2]: 112.3 ± 3.3 U/L
- MCF-7 cell viability/proliferation at 10 µM (MCF-7 cells): significantly decreased
- MCF-7 cell viability/proliferation at low concentrations (MCF-7 cells): did not produce a significant increase

Compound: COc1cc(O)c(CC=C(C)C)c(O)c1C(=O)CCc1ccc(O)cc1 [DXN, α,β-Dihydroxanthohumol]
- Decrease of skeletal muscle AMPK activation (pAMPK/AMPK) [1]: 22%
- Plasma ALT [2]: 55.8 ± 6.1 U/L
- Plasma AST [2]: 105.6 ± 6.5 U/L
- MCF-7 cell viability/proliferation at 10 µM (MCF-7 cells): significantly decreased
- MCF-7 cell viability/proliferation at low concentrations (MCF-7 cells): did not produce a significant increase

Compound: COc1cc(O)c(CCC(C)C)c(O)c1C(=O)CCc1ccc(O)cc1 [TXN, tetrahydroxanthohumol]
- Inhibition of SIN-1-induced lipid peroxidation of human LDL (human LDL): little or negligible protection
- Decrease of skeletal muscle AMPK activation (pAMPK/AMPK) [1]: 25%
- Plasma ALT [2]: 56.8 ± 10.5 U/L
- Plasma AST [2]: 110.5 ± 6.0 U/L
- MCF-7 cell viability/proliferation at 10 µM (MCF-7 cells): significantly decreased
- MCF-7 cell viability/proliferation at low concentrations (MCF-7 cells): did not produce a significant increase
